Where a name gives a salt, the structure may show the parent alone.
Target: T1, hCRF1 (Homo sapiens, UniProt P34998)
T1 construct: endogenous in cells; host or cells: Human Y-79 retinoblastoma cells
T1 sequence (P34998 24-415): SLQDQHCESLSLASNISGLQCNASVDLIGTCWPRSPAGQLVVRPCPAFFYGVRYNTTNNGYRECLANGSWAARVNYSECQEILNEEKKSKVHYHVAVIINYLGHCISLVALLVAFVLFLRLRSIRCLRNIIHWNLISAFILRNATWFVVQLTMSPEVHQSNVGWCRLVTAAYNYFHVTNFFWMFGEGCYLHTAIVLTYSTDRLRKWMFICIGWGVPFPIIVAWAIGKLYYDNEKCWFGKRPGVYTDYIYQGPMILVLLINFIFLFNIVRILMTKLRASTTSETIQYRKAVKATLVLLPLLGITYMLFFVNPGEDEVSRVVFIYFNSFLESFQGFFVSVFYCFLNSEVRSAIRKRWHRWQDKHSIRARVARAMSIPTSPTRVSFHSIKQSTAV
Experiment: Intracellular cAMP stimulation assay (CRF1 functional assay)
Type: cell-based
Conditions: inhibition of hCRF (30 nM)-stimulated cAMP accumulation in human Y-79 retinoblastoma cells, read-out: hCRF1 pIC50 (converted)
Description: Intracellular cAMP Stimulation Assay
Human Y-79 retinoblastoma cells are grown in RPMI 1640 medium with 15% FBS. Measures of cAMP accumulation are performed by using NEN Adenylyl Cyclase FlashPlate kit (SMP004). The cells are separated from culture medium, washed twice with PBS (150×g, 8 min), resuspended (2E+6 cells/ml) in Stimulation Buffer (provided in the kit), and then added to 96-well FlashPlates, (50,000 cells per well). Various concentrations of test compounds are incubated with the cells for 20 min prior to the addition of hCRF (30 nM). The total assay volume is 100 μl. The assay is terminated after 20 min after addition of the hCRF by addition of Detection Buffer and [^125I]cAMP. After 2 hr at room temperature the mixtures are aspirated and the bound radioactivity is measured with a Packard TopCount. The potency (IC50 values) of test compounds in inhibiting the hCRF-stimulated accumulation of cAMP is determined by nonlinear regression analyses with interactive curve-fitting procedures.
The compounds of the present invention were active in receptor binding and functional assays.

IC50	Structure (SMILES)
0.0631 µM	CCC=C(CCC)c1c2cccc(-c3ccc(Cl)cc3Cl)c2nn1C [Ia, 7-(2,4-Dichloro-phenyl)-2-methyl-3-(1-propyl-but-1-enyl)-2H-indazole hydrochloride]
0.0501 µM	CCC=C(CCC)c1c2cccc(-c3c(C)cc(C)cc3C)c2nn1C.Cl [Ib, 2-Methyl-3-(1-propyl-but-1-enyl)-7-(2,4,6-trimethyl-phenyl)-2H-indazole hydrochloride]
0.0794 µM	CCCN(CCC)c1c2cccc(-c3c(C)cc(C)cc3C)c2nn1C [Ic, [2-Methyl-7-(2,4,6-trimethyl-phenyl)-2H-indazol-3-yl]-dipropyl-amine]
0.0794 µM	CCCN(Cc1cccs1)c1c2cccc(-c3c(C)cc(C)cc3C)c2nn1C [Io, [2-Methyl-7-(2,4,6-trimethyl-phenyl)-2H-indazol-3-yl]-propyl-thiophen-2-ylmethyl-amine trifluoro-acetic acid salt]
0.0501 µM	CCCN(CC1CC1)c1c2cccc(-c3c(C)cc(C)cc3C)c2nn1C [Ip, Cyclopropylmethyl-[2-methyl-7-(2,4,6-trimethyl-phenyl)-2H-indazol-3-yl]-propyl-amine trifluoroacetic acid salt]

Tested on: not given
Experiment: not given
Conditions: not given

Structure (SMILES)	melting point
CCCN(CCC)c1c2cccc(-c3ccc(OC)cc3C)c2nn1C.Cl	60 to 70 °C
CCCN(CC1CC1)c1c2cccc(-c3ccc(Cl)cc3Cl)c2nn1C.Cl	137 to 139 °C
CCCN(CCC)c1c2cccc(-c3ccc(OC)cc3OC)c2nn1C.Cl	62 to 64.3 °C
CC/C=C(\CCC)c1c2cccc(-c3ccc(OC)nc3C)c2nn1C.Cl	84.7 to 89.4 °C
CCC=C(CCC)c1c2cccc(-c3ccc(Cl)cc3Cl)c2nn1C (as salt: hydrochloride) [Ia, 7-(2,4-Dichloro-phenyl)-2-methyl-3-(1-propyl-but-1-enyl)-2H-indazole hydrochloride]	147 to 152 °C
CCCN(CCC)c1c2cccc(-c3ccc(Cl)cc3Cl)c2nn1C (as salt: hydrochloride) [[7-(2,4-Dichloro-phenyl)-2-methyl-2H-indazol-3-yl]-dipropyl-amine]	153 to 157 °C
Cn1nc2c(-c3ccc(Cl)cc3Cl)cccc2c1C(=O)N1CCOCC1 [Iae, [7-(2,4-Dichloro-phenyl)-2-methyl-2H-indazol-3-yl]-morpholin-4-yl-methanone]	197 to 200.8 °C
Cn1nc2c(-c3ccc(Cl)cc3Cl)cccc2c1CN1CCOCC1 [Iag, 7-(2,4-Dichloro-phenyl)-2-methyl-3-morpholin-4-ylmethyl-2H-indazole]	152.3 to 154.8 °C
CCCN(CC1CC1)C(=O)c1c2cccc(-c3c(C)cc(C)cc3C)c2nn1C [Im, 2-Methyl-7-(2,4,6-trimethyl-phenyl)-2H-indazole-3-carboxylic acid cyclopropylmethyl-propyl-amide]	112.5 to 113.8 °C

More lines, now with the values ahead:

melting point	Structure (SMILES)
142 to 146 °C	CCN(CCOC)c1c2cccc(-c3c(C)cc(C)cc3C)c2nn1C.Cl
125.8 to 133.5 °C	CCCN(Cc1c2cccc(-c3c(C)cc(C)cc3C)c2nn1C)CC1CC1.Cl
154 to 158 °C	CCCN(CCC)c1c2cccc(-c3c(C)cc(C)cc3C)c2nn1C (as salt: hydrochloride) [Ic, [2-Methyl-7-(2,4,6-trimethyl-phenyl)-2H-indazol-3-yl]-dipropyl-amine]
86 to 121 °C	CCCN(CCOC)c1c2cccc(-c3c(C)cc(C)cc3C)c2nn1C (as salt: hydrochloride) [Ie, (2-Methoxy-ethyl)-[2-methyl-7-(2,4,6-trimethyl-phenyl)-2H-indazol-3-yl]-propyl-amine]
140 to 142 °C	COCCN(CCOC)c1c2cccc(-c3c(C)cc(C)cc3C)c2nn1C (as salt: hydrochloride) [If, Bis-(2-methoxy-ethyl)-[2-methyl-7-(2,4,6-trimethyl-phenyl)-2H-indazol-3-yl]-amine]
132 to 135 °C	CCC=C(CCC)c1c2cccc(-c3c(C)cc(C)cc3C)c2nn1C.Cl [Ib, 2-Methyl-3-(1-propyl-but-1-enyl)-7-(2,4,6-trimethyl-phenyl)-2H-indazole hydrochloride]

— patent publication US7214699B2, “Indazole derivatives as CRF antagonists” (Roche Palo Alto LLC, priority 2002, dated 2007)
